Results as given in ChEMBL document CHEMBL1201862, “PubChem BioAssay data set” (2004).
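48-hour exposure; five concentrations; linearly interpolated endpoints. GI50 marks 50% less growth.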 Calls of active or inactive are those of the source. Rule as the data show it: active = GI50 up to about 1.1 µM and inactive = higher. Square brackets hold non-standard residues; d marks the D form. Peptide text beside a SMILES is read from it. * marks the point of attachment. NMeV = CN[C@H](C(=O)O)C(C)C; X28 = COc1ccc(CN*)c(OC)c1; Octanoyl = CCCCCCCC(=O)*; dNMeA = CN[C@H](C)C(=O)O

Key:
Assay in all cases: NCI-60 cell line screen, 48 h
SF-268 = system: SF-268
SF-539 = system: SF-539
OVCAR-3 = system: OVCAR-3
HT-29 = system: HT-29
NCI-H23 = system: NCI-H23
RXF 393 = system: RXF 393
COLO 205 = system: COLO 205
U-251 = system: U-251
RPMI-8226 = system: RPMI-8226
HL-60 = system: HL-60
K562 = system: K562
SNB-19 = system: SNB-19
NCI-H522 = system: NCI-H522
NCI-H460 = system: NCI-H460
SN12C = system: SN12C
KM12 = system: KM12
DU-145 = system: DU-145
SK-MEL-5 = system: SK-MEL-5
MCF7 = system: MCF7
MDA-N = system: MDA-N

Measured: GI50

N=c1oc2c(O)c(O)ccc2cc1C(N)=O
inactive: SF-268 96.4 µM | SF-539 > 100 µM | OVCAR-3 46.8 µM | HT-29 > 100 µM | NCI-H23 > 100 µM | RXF 393 50.2 µM | COLO 205 41.6 µM | U-251 90.6 µM | RPMI-8226 32.1 µM | HL-60 > 10 µM | K562 17.7 µM | SNB-19 > 100 µM | NCI-H522 58.6 µM | NCI-H460 > 100 µM | SN12C > 100 µM | KM12 > 100 µM

CCOC(=O)c1c2c(n(-c3ccc(OC)cc3)c1C)C(=O)C(=O)c1ccccc1-2
inactive: SF-268 1.64 µM | HT-29 2.34 µM | RXF 393 1.84 µM | COLO 205 2.2 µM | U-251 1.22 µM | SNB-19 1.36 µM | DU-145 1.52 µM | NCI-H522 2.71 µM | NCI-H460 1.43 µM | SN12C 1.58 µM | KM12 1.82 µM
active: SF-539 0.711 µM | OVCAR-3 0.419 µM | NCI-H23 0.873 µM | RPMI-8226 0.647 µM | HL-60 0.0261 µM | K562 0.488 µM | SK-MEL-5 1.06 µM | MCF7 0.693 µM

Cc1ccc(NC(=O)CCc2nnc(N)o2)cc1
inactive: SF-268 > 100 µM | SF-539 > 100 µM | OVCAR-3 > 100 µM | HT-29 > 100 µM | NCI-H23 > 100 µM | RXF 393 > 100 µM | COLO 205 > 100 µM | U-251 > 100 µM | RPMI-8226 > 100 µM | HL-60 > 67.3 µM | K562 > 75.7 µM | SNB-19 > 100 µM | SK-MEL-5 > 100 µM | NCI-H522 > 100 µM | NCI-H460 > 100 µM | SN12C > 100 µM | KM12 > 100 µM

Nc1ccc(C2=Nc3ccccc3SC(c3ccccc3O)C2)cc1 (centres undefined)
inactive: SF-268 33.7 µM | SF-539 38.2 µM | OVCAR-3 23.3 µM | HT-29 42.8 µM | NCI-H23 30.5 µM | RXF 393 24.9 µM | COLO 205 45.1 µM | U-251 45.5 µM | RPMI-8226 17.5 µM | HL-60 23.9 µM | K562 15.3 µM | SNB-19 43.1 µM | SK-MEL-5 26.1 µM | NCI-H522 21.3 µM | NCI-H460 30.6 µM | SN12C 45.5 µM | KM12 25.5 µM

Cc1cc(S(=O)(=O)O)c(NC(=O)c2oc3cc(O)ccc3c(=O)c2C)cc1Cl
inactive: SF-268 > 100 µM | SF-539 > 100 µM | OVCAR-3 > 100 µM | HT-29 > 100 µM | NCI-H23 > 100 µM | RXF 393 > 100 µM | U-251 > 100 µM | RPMI-8226 > 100 µM | K562 > 100 µM | SNB-19 > 100 µM | SK-MEL-5 > 100 µM | MDA-N > 100 µM | NCI-H522 > 100 µM | NCI-H460 > 100 µM | SN12C > 100 µM | MCF7 > 100 µM | KM12 > 100 µM

CCOC(=O)C1=C(O)C(=O)c2cc(OC)ccc2C1=O
inactive: SF-268 > 100 µM | SF-539 65.9 µM | OVCAR-3 > 100 µM | HT-29 > 100 µM | NCI-H23 31.8 µM | RXF 393 > 100 µM | COLO 205 > 100 µM | U-251 > 100 µM | RPMI-8226 > 100 µM | HL-60 > 100 µM | K562 > 100 µM | SNB-19 38.9 µM | SK-MEL-5 49.1 µM | NCI-H522 55.7 µM | NCI-H460 > 100 µM | SN12C > 100 µM | KM12 > 100 µM

CC(C)(C)/C(O)=C\c1nc2cc(F)c(F)cc2[nH]c1=O
inactive: SF-268 > 100 µM | SF-539 > 100 µM | HT-29 > 100 µM | NCI-H23 > 100 µM | RXF 393 > 100 µM | COLO 205 > 100 µM | U-251 > 100 µM | HL-60 > 100 µM | K562 > 100 µM | SNB-19 > 100 µM | DU-145 25.7 µM | SK-MEL-5 > 100 µM | NCI-H460 > 100 µM | MCF7 > 100 µM | KM12 > 100 µM

CCOC(=O)NC(=O)c1cn(CCN2CCNCC2)c(=O)[nH]c1=O
inactive: SF-268 > 100 µM | SF-539 > 100 µM | OVCAR-3 > 100 µM | HT-29 > 100 µM | NCI-H23 > 100 µM | RXF 393 > 100 µM | COLO 205 > 100 µM | U-251 > 100 µM | RPMI-8226 > 100 µM | HL-60 > 100 µM | K562 > 100 µM | SNB-19 > 100 µM | SK-MEL-5 > 100 µM | NCI-H522 > 100 µM | NCI-H460 > 100 µM | SN12C > 100 µM | KM12 > 100 µM

O=C(O)C12CCC(CC1=O)C2 (centres undefined)
inactive: SF-268 > 100 µM | OVCAR-3 > 100 µM | HT-29 > 100 µM | NCI-H23 > 100 µM | COLO 205 > 100 µM | U-251 > 100 µM | RPMI-8226 > 100 µM | HL-60 > 100 µM | K562 > 100 µM | SNB-19 > 100 µM | SK-MEL-5 > 100 µM | NCI-H522 > 100 µM | NCI-H460 > 100 µM | SN12C > 100 µM | MCF7 > 100 µM | KM12 > 100 µM

C[N+]1(C)C/C(=C\c2ccc(O)cc2)C(=O)/C(=C/c2ccc(O)cc2)C1
inactive: SF-268 55.7 µM | SF-539 65 µM | OVCAR-3 > 100 µM | HT-29 > 100 µM | RXF 393 > 100 µM | COLO 205 47.1 µM | U-251 49.5 µM | RPMI-8226 44.7 µM | HL-60 19.5 µM | SNB-19 > 100 µM | SK-MEL-5 > 100 µM | NCI-H522 > 100 µM | NCI-H460 29 µM | SN12C 18.5 µM | KM12 45.1 µM

CC1CC(N2CCOCC2)=Nc2ccccc2N1C (centres undefined)
inactive: SF-268 > 100 µM | SF-539 > 100 µM | OVCAR-3 > 100 µM | HT-29 > 100 µM | NCI-H23 80 µM | RXF 393 > 100 µM | COLO 205 > 100 µM | U-251 > 100 µM | RPMI-8226 > 100 µM | HL-60 > 100 µM | K562 > 100 µM | SNB-19 > 100 µM | DU-145 > 100 µM | SK-MEL-5 > 100 µM | MDA-N > 100 µM | NCI-H522 98.9 µM | NCI-H460 > 100 µM | SN12C > 100 µM | KM12 > 100 µM

N#CC(C#N)=c1c2ccccc2c(=C(C#N)C#N)c2ccccc12
inactive: SF-268 22.9 µM | OVCAR-3 16.3 µM | HT-29 18.6 µM | NCI-H23 19.6 µM | COLO 205 21.2 µM | U-251 19.4 µM | RPMI-8226 23.6 µM | HL-60 19.8 µM | K562 19.9 µM | SNB-19 14.6 µM | SK-MEL-5 16.7 µM | MDA-N 18.7 µM | NCI-H460 42.2 µM | SN12C 16.6 µM | MCF7 5.61 µM | KM12 18.1 µM

CN(C)CC/C(=N\Nc1c(F)c(F)c(F)c(F)c1F)c1ccccc1
inactive: SF-268 90.4 µM | SF-539 40.2 µM | OVCAR-3 > 10 µM | HT-29 35.8 µM | NCI-H23 77.1 µM | RXF 393 22 µM | COLO 205 > 100 µM | U-251 42.4 µM | RPMI-8226 19 µM | HL-60 9.68 µM | K562 20.4 µM | SNB-19 54.1 µM | SK-MEL-5 14.2 µM | NCI-H522 14.3 µM | NCI-H460 28 µM | SN12C 37.8 µM | KM12 48.5 µM

C[C@H]1[C@H](C)CC[C@]2(C(=O)O)CCC3(COC(=O)/C=C/c4ccc(O)cc4)C(=CCC4[C@@]5(C)CC[C@H](O)C(C)(C)C5CC[C@]43C)[C@H]12 (some centres undefined)
inactive: SF-268 4.67 µM | SF-539 4.17 µM | OVCAR-3 4.8 µM | HT-29 6.12 µM | RXF 393 10.9 µM | COLO 205 3.99 µM | U-251 2.33 µM | RPMI-8226 5.05 µM | HL-60 7.96 µM | K562 2.86 µM | SNB-19 5.11 µM | SK-MEL-5 11 µM | NCI-H522 3.78 µM | NCI-H460 3.09 µM | SN12C 5.68 µM | KM12 3.47 µM

CC(=O)OC1C[C@H]2C(OC(=O)c3ccccc3)C3C4(OC(C)=O)COC4C[C@H](OC(C)=O)[C@@]3(C)C(OC(C)=O)[C@H](OC(C)=O)C(=C1C)C2(C)C (some centres undefined)
inactive: SF-268 24.9 µM | SF-539 50 µM | OVCAR-3 64.7 µM | HT-29 49.3 µM | NCI-H23 52.8 µM | RXF 393 16.2 µM | COLO 205 42.7 µM | RPMI-8226 20.4 µM | HL-60 16.7 µM | K562 23.8 µM | SNB-19 24.2 µM | SK-MEL-5 26.3 µM | NCI-H522 20.4 µM | NCI-H460 35.5 µM | SN12C 51.2 µM | KM12 59.4 µM

CCCCCCCC(=O)N[C@H](C(=O)N[C@H](C(=O)N(C)[C@H](C(=O)N1CCC[C@H]1C(=O)N(C)[C@H](C)C(=O)NCc1ccc(OC)cc1OC)C(C)C)C(C)C)C(C)C (Octanoyl-VV[NMeV]P[dNMeA]-X28)
inactive: SF-268 15.2 µM | SF-539 18.8 µM | OVCAR-3 4.2 µM | HT-29 4.23 µM | NCI-H23 13.6 µM | RXF 393 8.57 µM | COLO 205 5.74 µM | U-251 4.79 µM | RPMI-8226 3.02 µM | HL-60 3.68 µM | K562 5.62 µM | SNB-19 12.7 µM | DU-145 25.3 µM | SK-MEL-5 3.3 µM | NCI-H522 7.21 µM | NCI-H460 8.34 µM | SN12C 18 µM | MCF7 7.53 µM | KM12 4.62 µM
